The target in test [1] is T1, Human immunodeficiency virus type 1 integrase (Human immunodeficiency virus 1, UniProt Q7ZJM1). Description: Inhibition of HIV1 integrase 3'-end processing activity.
Test [2] deals with T1, Human immunodeficiency virus type 1 integrase. Description: Inhibition of HIV1 integrase strand transfer activity.
Test [3] has the same target. Description: Inhibition of HIV1 integrase 3'-end processing activity in presence of Mg2+.
Test [4] has the same target. Briefly: Inhibition of HIV1 integrase strand transfer activity in presence of Mg2+.
The target in test [5] is Human immunodeficiency virus type 1 integrase (Human immunodeficiency virus 1) (UniProt Q7ZJM1). Briefly: Selectivity for HIV1 integrase strand transfer activity over 3'-end processing activity in presence of Mg2+.

One may read the IC50 as the concentration needed to halve the response being measured.

T1 sequence (Q7ZJM1 whole entry): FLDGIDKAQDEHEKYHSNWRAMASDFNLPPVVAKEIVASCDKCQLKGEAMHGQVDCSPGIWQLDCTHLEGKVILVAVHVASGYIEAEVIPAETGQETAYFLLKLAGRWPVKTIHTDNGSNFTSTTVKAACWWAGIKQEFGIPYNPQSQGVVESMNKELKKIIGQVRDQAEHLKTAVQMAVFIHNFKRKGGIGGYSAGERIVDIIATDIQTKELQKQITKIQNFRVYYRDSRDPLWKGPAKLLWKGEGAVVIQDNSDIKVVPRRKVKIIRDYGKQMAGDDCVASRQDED
Human immunodeficiency virus type 1 integrase (Human immunodeficiency virus 1), sequence (Q7ZJM1 as listed by the source): as the sequence (Q7ZJM1 whole entry) above

Take `CCOc1ccc(C(=O)C2=C(O)C(=O)N(c3nccs3)C2c2ccc(OC)cc2)cc1` (stereo unspecified): the results for the half-inhibitory concentration (IC50) in test [1] and in test [2] were greater than 100 µM and 90 µM, respectively.

As to `O=C(C1=C(O)C(=O)N(c2nc3ccccc3s2)C1c1ccc2c(c1)OCO2)c1ccccc1` (stereo unspecified), the IC50 in test [1] came to 57 µM; in test [2], 21 µM.

Take `CC(C)(C)c1ccc(C2C(C(=O)c3ccc(F)cc3)=C(O)C(=O)N2c2nncs2)cc1` (stereo unspecified): the IC50 worked out at 64 µM in test [1] and 43 µM in test [2].

For the molecule `Cc1ccc(C(=O)C2=C(O)C(=O)N(c3ncc(S(=O)(=O)c4ccc([N+](=O)[O-])cc4)s3)C2c2cccc(Cl)c2)cc1` (stereo unspecified), the IC50 was greater than 100 µM in test [3], 27 µM in test [1], 6.1 µM in test [4] and 8 µM in test [2].

For the molecule `COc1ccc(C2C(C(=O)c3ccc(Br)cc3)=C(O)C(=O)N2c2cccc(C(F)(F)F)c2)cc1OC` (stereo unspecified), the figures for the IC50 in test [1] and in test [2] were 47 µM and 26 µM, respectively.

For `CCOc1ccc(C(=O)C2=C(O)C(=O)N(c3nccs3)C2c2ccc(O)c(OC)c2)cc1` (stereo unspecified), the IC50 was 57 µM in test [1] and 30 µM in test [2].

`COc1ccc(OC)c(C(=O)C2=C(O)C(=O)N(CCCCCC(=O)O)C2c2ccc(Cl)cc2)c1` (stereo unspecified): the IC50 in test [3] was greater than 100 µM; in test [1], 88 µM; in test [4], 10 µM; in test [2] it was 40 µM. Besides, in test [5], the Ratio IC50 is greater than 10.

For `Cc1ccc(C(=O)C2=C(O)C(=O)N(c3nccs3)C2c2ccc(F)cc2)cc1` (stereo unspecified), the half-maximal inhibitory concentration (IC50) was greater than 100 µM in test [1] and 78 µM in test [2].

Regarding `COc1ccc(C(=O)C2=C(O)C(=O)N(CCc3ccccc3)C2c2ccc(Br)cc2)cc1OC` (stereo unspecified), the IC50 amounted to 60 µM in test [1] and 42 µM in test [2].

Turning to `CCOc1ccc(C(=O)C2=C(O)C(=O)N(c3nnc(C)s3)C2c2ccc(F)cc2)cc1` (stereo unspecified), the IC50 in test [1] and in test [2] was greater than 100 µM each time.

Take `CCOC(=O)c1sc(N2C(=O)C(O)=C(C(=O)c3ccccc3)C2c2ccc(F)cc2)nc1C` (stereo unspecified): the IC50 in test [1] is 44 µM; in test [2], 21 µM.

Turning to `CCOC(=O)c1sc(N2C(=O)C(O)=C(C(=O)c3ccc(C)cc3)C2c2ccc(F)cc2)nc1C` (stereo unspecified), the values for the IC50 in test [1] and in test [2] were greater than 100 µM and 33 µM, respectively.

With `Cc1ccc(C2C(C(=O)c3ccc(Cl)cc3)=C(O)C(=O)N2CC(=O)O)cc1` (stereo unspecified), the IC50 in test [1] was determined as 84 µM; in test [2], 69 µM.

On to `COc1ccc(C2C(C(=O)c3ccc(Br)cc3)=C(O)C(=O)N2c2cc(C(C)(C)C)on2)cc1OC` (stereo unspecified), for which the IC50 in test [1] is 45 µM; in test [2], 43 µM.

As for `O=C(C1=C(O)C(=O)N(c2nc3ccccc3s2)C1c1ccccn1)c1ccc(Cl)cc1` (stereo unspecified), the IC50 in test [1] was greater than 100 µM; in test [2], 83 µM.

For `O=C(C1=C(O)C(=O)N(c2nc3ccccc3s2)C1c1cccnc1)c1ccc(Cl)cc1` (stereo unspecified), the IC50 was greater than 100 µM in test [1] and 90 µM in test [2].

Consider `Cc1ccc(C(=O)C2=C(O)C(=O)N(c3nccs3)C2c2ccc(Cl)cc2)cc1` (stereo unspecified), for which the results for the half-maximal inhibitory concentration (IC50) in test [1] and in test [2] were 56 µM and 39 µM, respectively.

As for `Cc1ccc(C(=O)C2=C(O)C(=O)N(CCCn3ccnc3)C2c2ccc(Cl)cc2)cc1` (stereo unspecified), the IC50 in test [1] was determined as 93 µM; in test [2], 67 µM.
